Patent publication US20210221785A1, “AMINO-PYRIMIDONYL DERIVATIVES, A PROCESS FOR THEIR PREPARATION AND PHARMACEUTICAL COMPOSITIONS CONTAINING THEM” (LES LABORATOIRES SERVIER, priority 2018, published 2021)

target: T1, His-His-USP7 (aa208-560, |C315A|) (Homo sapiens, UniProt Q93009, C315A); experiment: Evaluation of the inhibition of USP7 by the Fluorescence Intensity (FLINT) readings; format: biochemical; conditions: 0.25 nM His-His-USP7, compound incubated 60 minutes at 30° C., 500 nM Ubiquitin-Rhodamine-110 substrate; 50% reduction in kinetic rate
T1 construct: His-His-USP7 (aa208-560, |C315A|); His-His (N)
T1 sequence (Q93009 208-560 C315A): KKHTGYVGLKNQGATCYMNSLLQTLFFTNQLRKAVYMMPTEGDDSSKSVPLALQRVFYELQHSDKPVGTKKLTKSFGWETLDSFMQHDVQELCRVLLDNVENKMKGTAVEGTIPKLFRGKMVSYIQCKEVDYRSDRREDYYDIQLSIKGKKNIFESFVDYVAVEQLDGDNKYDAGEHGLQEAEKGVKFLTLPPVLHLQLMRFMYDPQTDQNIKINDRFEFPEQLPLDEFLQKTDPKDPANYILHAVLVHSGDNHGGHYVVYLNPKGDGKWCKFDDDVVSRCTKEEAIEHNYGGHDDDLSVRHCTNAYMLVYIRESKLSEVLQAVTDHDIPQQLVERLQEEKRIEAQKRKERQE
Experimental: USP7 activity was measured using Rhodamine-110 c-terminal labelled Ubiquitin as a substrate (UbiQ Bio). Incubation with USP7 results in the release of Rhodamine-110 leading to an increase in fluorescence which can be used in the continuous measurement of USP7 activity.
The USP7 reactions were performed in a 50 μL volume, in 384 well black solid low binding plates (Corning #3575). The reaction buffer consisted of 100 mM Bicine pH 8.0, 0.01% TritonX100, 1 mM TCEP, and 10% DMSO.
0.25 nM His-His-USP7 (aa208-560, |C315A|) was incubated with compound (final concentration 10% DMSO) for 60 minutes at 30° C. The reaction was then initiated by the addition of 500 nM Ubiquitin-Rhodamme-110 substrate and the plate read every 3 minutes for 21 minutes to measure the release of Rhodamine-110. Fluorescence Intensity (FLINT) readings were measured using a […] plate reader (Ex.485 nm, Em.535 nm).
The inhibition of increasing doses of compound was expressed as a percentage reduction in kinetic rate compared to the kinetic rates established between ‘DMSO only’ and ‘total inhibition’ controls (no USP7). The inhibitory concentrations that gave a 50% reduction in kinetic rate (IC50) were determined, from 11-point dose response cures, in XL-Fit using a 4-Parameter Logistic Model 205 (Sigmoidal Dose-Response Model).

Compound | IC50
Nc1c(Oc2ccc(F)cc2)ncn(CC2(O)CCN(C(=O)[C@@H]3CCC(F)(F)C[C@H]3c3ccco3)CC2)c1=O (relative stereo) [Example 88, 5-amino-3-({1-[(1,2-trans)-4,4-difluoro-2-(furan-2-yl)cyclohexane-1-carbonyl]-4-hydroxypiperidin-4-yl}methyl)-6-(4-fluorophenoxy)pyrimidin-4(3H)-one] | 111 nM
C#C[C@@]1(O)CC[C@@H](C(=O)N2CCC(O)(Cn3cnc(Oc4ccc(F)cc4)c(N)c3=O)CC2)[C@H](c2ccccc2)C1 (relative stereo) [Example 91, rel-5-amino-3-([1-[(1R,2R,4R)-4-ethynyl-4-hydroxy-2-phenyl-cyclohexanecarbonyl]-4-hydroxypiperidin-4-yl]methyl)-6-(4-fluorophenoxy)-3,4-dihydropyrimidin-4-one] | 289 nM
Nc1c(Oc2ccc(F)cc2)ncn(CC2(O)CCN(C(=O)[C@@H]3CC[C@](O)(Cc4cnccn4)C[C@H]3c3ccccc3)CC2)c1=O (relative stereo) [Example 98, rel-5-amino-6-(4-fluorophenoxy)-3-[(4-hydroxy-1-{([(1R,2R,4R)-4-hydroxy-2-phenyl-4-(pyrazin-2-ylmethyl)cyclohexyl]carbonyl}piperidin-4-yl)methyl]pyrimidin-4-one] | 223 nM
Nc1c(Oc2ccc(F)cc2)ncn(CC2(O)CCN(C(=O)[C@@H]3CC[C@@](O)(Cc4ccc(F)cc4)C[C@H]3c3ccccc3)CC2)c1=O (relative stereo) [Example 100, rel-5-amino-6-(4-fluorophenoxy)-3-[(1-{[(1R,2R,4S)-4-[(4-fluorophenyl)methyl]-4-hydroxy-2-phenylcyclohexyl]carbonyl}-4-hydroxypiperidin-4-yl)methyl]pyrimidin-4-one] | 244 nM
Cn1ccnc1C[C@@]1(O)CC[C@@H](C(=O)N2CCC(O)(Cn3cnc(Oc4ccc(F)cc4)c(N)c3=O)CC2)[C@H](c2ccccc2)C1 (relative stereo) [Example 101, rel-5-amino-6-(4-fluorophenoxy)-3-({4-hydroxy-1-[(1R,2R,4R)-4-hydroxy-4-[(1-methyl-1H-imidazol-2-yl)methyl]-2-phenyl-cyclohexanecarbonyl]piperidin-4-yl)}methyl)-3,4-dihydropyrimidin-4-one] | 363 nM
Nc1c(Oc2ccc(F)cc2)ncn(CC2(O)CCN(C(=O)[C@@H]3CC[C@](O)(c4ccccc4)C[C@H]3c3ccccc3)CC2)c1=O (relative stereo) [Example 102, rel-5-amino-6-(4-fluorophenoxy)-3-[(4-hydroxy-1-{[(1R,2R,4R)-4-hydroxy-2,4-diphenylcyclohexyl]carbonyl}piperidin-4-yl)methyl]pyrimidin-4-one] | 461 nM
Nc1c(Oc2ccc(F)cc2)ncn(CC2(O)CCN(C(=O)[C@@H]3CC[C@@](O)(c4ccccc4)C[C@H]3c3ccccc3)CC2)c1=O (relative stereo) [Example 103, rel-5-amino-6-(4-fluorophenoxy)-3-[(4-hydroxy-1-{[(1R,2R,4S)-4-hydroxy-2,4-diphenylcyclohexyl]carbonyl}piperidin-4-yl)methyl]pyrimidin-4-one] | 312 nM
CC1(F)CC[C@@H](C(=O)N2CCC(O)(Cn3cnc(-c4ccc(F)cc4)c(N)c3=O)CC2)[C@H](c2ccccc2)C1 (relative stereo) [Example 127, rel-5-amino-3-[(1-{[(1R,2R)-4-fluoro-4-methyl-2-phenylcyclohexyl]carbonyl}-4-hydroxypiperidin-4-yl)methyl]-6-(4-fluorophenyl)pyrimidin-4-one] | 46.6 nM
Nc1c(Oc2ccccc2F)ncn(CC2(O)CCN(C(=O)[C@@H]3CCC(F)(F)C[C@H]3c3ccccc3)CC2)c1=O [Example 2, 5-amino-3-({1-[(1R,2R)-4,4-difluoro-2-phenylcyclohexane-1-carbonyl]-4-hydroxypiperidin-4-yl}methyl)-6-(2-fluorophenoxy)pyrimidin-4(3H)-one] | 304 nM
COc1cccc(Oc2ncn(CC3(O)CCN(C(=O)[C@@H]4CCC(F)(F)C[C@H]4c4ccccc4)CC3)c(=O)c2N)c1 [Example 4, 5-amino-3-({1-[(1R,2R)-4,4-difluoro-2-phenylcyclohexane-1-carbonyl]-4-hydroxypiperidin-4-yl}methyl)-6-(3-methoxyphenoxy)pyrimidin-4(3H)-one] | 93.8 nM
Nc1c(Oc2cccc(F)c2)ncn(CC2(O)CCN(C(=O)[C@@H]3CCC(F)(F)C[C@H]3c3ccccc3)CC2)c1=O [Example 6, 5-amino-3-({1-[(1R,2R)-4,4-difluoro-2-phenylcyclohexane-1-carbonyl]-4-hydroxypiperidin-4-yl}methyl)-6-(3-fluorophenoxy)pyrimidin-4(3H)-one] | 183 nM
COc1cc(OC)cc(Oc2ncn(CC3(O)CCN(C(=O)[C@@H]4CCC(F)(F)C[C@H]4c4ccccc4)CC3)c(=O)c2N)c1 [Example 7, 5-amino-3-({1-[(1R,2R)-4,4-difluoro-2-phenylcyclohexane-1-carbonyl]-4-hydroxypiperidin-4-yl}methyl)-6-(3,5-dimethoxyphenoxy)pyrimidin-4(3H)-one] | 181 nM
Nc1c(Oc2cc(F)cc(F)c2)ncn(CC2(O)CCN(C(=O)[C@@H]3CCC(F)(F)C[C@H]3c3ccccc3)CC2)c1=O [Example 8, 5-amino-6-(3,5-difluorophenoxy)-3-({1-[(1R,2R)-4,4-difluoro-2-phenylcyclohexane-1-carbonyl]-4-hydroxypiperidin-4-yl}methyl)pyrimidin-4(3H)-one] | 472 nM
Nc1c(Oc2ccccc2)ncn(C[C@]2(O)CCN(C(=O)[C@@H]3CCC(F)(F)C[C@H]3c3ccccc3)CC2(F)F)c1=O [Example 10, 5-amino-3-[[(4R)-1-[(1R,2R)-4,4-difluoro-2-phenyl-cyclohexanecarbonyl]-3,3-difluoro-4-hydroxy-4-piperidyl]methyl]-6-phenoxy-pyrimidin-4-one] | 4320 nM
O=C([C@@H]1CCC(F)(F)C[C@H]1c1ccccc1)N1CCC(O)(Cn2cnc(Oc3ccccc3)c(NCC(F)(F)F)c2=O)CC1 [Example 17, 3-({1-[(1R,2R)-4,4-difluoro-2-phenylcyclohexane-1-carbonyl]-4-hydroxypiperidin-4-yl}methyl)-6-phenoxy-5-[(2,2,2-trifluoroethyl)amino]pyrimidin-4(3H)-one] | 1250 nM
Nc1c(Oc2cccc(OC(F)(F)F)c2)ncn(CC2(O)CCN(C(=O)[C@@H]3CCC(F)(F)C[C@H]3c3ccccc3)CC2)c1=O [Example 18, 5-amino-3-({1-[(1R,2R)-4,4-difluoro-2-phenylcyclohexane-1-carbonyl]-4-hydroxypiperidin-4-yl}methyl)-6-[3-(trifluoromethoxy)phenoxy]pyrimidin-4(3H)-one] | 247 nM
Nc1c(Oc2cccc(S(F)(F)(F)(F)F)c2)ncn(CC2(O)CCN(C(=O)[C@@H]3CCC(F)(F)C[C@H]3c3ccccc3)CC2)c1=O [Example 21, 5-amino-3-({1-[(1R,2R)-4,4-difluoro-2-phenylcyclohexane-1-carbonyl]-4-hydroxypiperidin-4-yl}methyl)-6-[3-(pentafluoro-λ^6-sulfanyl)phenoxy]pyrimidin-4(3H)-one] | 716 nM
Nc1c(Oc2cccc(C(F)(F)F)c2)ncn(CC2(O)CCN(C(=O)[C@@H]3CCC(F)(F)C[C@H]3c3ccccc3)CC2)c1=O [Example 22, 5-amino-3-({1-[(1R,2R)-4,4-difluoro-2-phenylcyclohexane-1-carbonyl]-4-hydroxypiperidin-4-yl}methyl)-6-[3-(trifluoromethyl)phenoxy]pyrimidin-4(3H)-one] | 264 nM
N#Cc1cccc(Oc2ncn(CC3(O)CCN(C(=O)[C@@H]4CCC(F)(F)C[C@H]4c4ccccc4)CC3)c(=O)c2N)c1 [Example 25, 3-{[5-amino-1-({1-[(1R,2R)-4,4-difluoro-2-phenylcyclohexane-1-carbonyl]-4-hydroxypiperidin-4-yl}methyl)-6-oxo-1,6-dihydropyrimidin-4-yl]oxy}benzonitrile] | 203 nM
COC(=O)c1cccc(Oc2ncn(CC3(O)CCN(C(=O)[C@@H]4CCC(F)(F)C[C@H]4c4ccccc4)CC3)c(=O)c2N)c1 [Example 27, methyl 3-{[5-amino-1-({1-[(1R,2R)-4,4-difluoro-2-phenylcyclohexane-1-carbonyl]-4-hydroxypiperidin-4-yl}methyl)-6-oxo-1,6-dihydropyrimidin-4-yl]oxy}benzoate] | 85 nM
Nc1c(Oc2ccc(CCCO)cc2)ncn(CC2(O)CCN(C(=O)[C@@H]3CCC(F)(F)C[C@H]3c3ccccc3)CC2)c1=O [Example 29, 5-amino-3-({1-[(1R,2R)-4,4-difluoro-2-phenylcyclohexane-1-carbonyl]-4-hydroxypiperidin-4-yl}methyl)-6-[4-(3-hydroxypropyl)phenoxy]pyrimidin-4(3H)-one] | 175 nM
Nc1c(Sc2ccccc2)ncn(CC2(O)CCN(C(=O)[C@@H]3CCC(F)(F)C[C@H]3c3ccccc3)CC2)c1=O [Example 30, 5-amino-3-({1-[(1R,2R)-4,4-difluoro-2-phenylcyclohexane-1-carbonyl]-4-hydroxypiperidin-4-yl}methyl)-6-(phenylsulfanyl)pyrimidin-4(3H)-one] | 151 nM
